From ChEMBL document CHEMBL1159176, “Regioselective synthesis of 3-aryl substituted pyrrolidines via palladium catalyzed arylation: pharmacological evaluation for central dopaminergic and serotonergic activity” (Bioorg Med Chem Lett, 1997)

Tests used:
Rattus norvegicus [1] = test: Accumulation of 5-Hydroxytryptophan in striatal region in rat after injecting drug compound 65 min and NSD 1015 at a dose of 100 mg/kg administered subcutaneously, 30 min before death, tested in vivo; assay type: functional; settings: route subcutaneous
Rattus norvegicus [2] = test: Accumulation of Dihydroxyphenylalanine in striatal region in rat after injecting drug compound 65 min and NSD 1015 at a dose of 100 mg/kg administered subcutaneously, 30 min before death, tested in vivo; assay type: functional; settings: route subcutaneous
[3] = target: T1, 5-hydroxytryptamine receptor 1A (Rattus norvegicus, UniProt P19327); test: Binding affinity against [3H]8-OH-DPAT binding to 5-hydroxytryptamine 1A receptor expressed in CHO-K1 cells; assay type: cell-based
T1 sequence (P19327 whole entry): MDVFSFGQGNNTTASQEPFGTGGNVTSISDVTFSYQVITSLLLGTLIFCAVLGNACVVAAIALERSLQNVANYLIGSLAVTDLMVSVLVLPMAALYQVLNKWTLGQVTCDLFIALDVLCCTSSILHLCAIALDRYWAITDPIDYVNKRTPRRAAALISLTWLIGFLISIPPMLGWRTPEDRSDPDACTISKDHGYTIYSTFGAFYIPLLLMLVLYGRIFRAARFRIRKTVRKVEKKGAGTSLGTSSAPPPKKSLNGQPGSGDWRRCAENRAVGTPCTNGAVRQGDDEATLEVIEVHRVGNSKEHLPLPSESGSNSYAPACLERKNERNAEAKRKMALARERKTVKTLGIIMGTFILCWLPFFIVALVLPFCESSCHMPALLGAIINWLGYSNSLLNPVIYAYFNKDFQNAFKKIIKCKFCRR

D(3) dopamine receptor [4] = target: T2, D(3) dopamine receptor (Rattus norvegicus, UniProt P19020); test: Binding affinity against [3H]spiperone binding to Dopamine receptor D3 expressed in CHO-K1 cells; assay type: cell-based
T2 sequence (P19020 whole entry): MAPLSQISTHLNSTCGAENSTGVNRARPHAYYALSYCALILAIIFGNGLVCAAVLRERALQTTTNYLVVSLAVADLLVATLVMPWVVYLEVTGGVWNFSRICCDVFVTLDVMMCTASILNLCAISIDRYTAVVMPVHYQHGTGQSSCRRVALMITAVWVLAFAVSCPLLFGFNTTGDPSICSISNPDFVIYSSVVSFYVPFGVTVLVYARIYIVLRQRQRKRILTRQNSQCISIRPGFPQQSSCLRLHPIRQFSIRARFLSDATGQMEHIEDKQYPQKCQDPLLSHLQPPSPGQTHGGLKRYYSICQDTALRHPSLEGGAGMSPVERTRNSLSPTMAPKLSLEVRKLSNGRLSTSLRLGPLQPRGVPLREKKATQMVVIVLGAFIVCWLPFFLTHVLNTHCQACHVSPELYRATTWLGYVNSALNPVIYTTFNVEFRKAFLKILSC

Rattus norvegicus [5] = test: Accumulation of 5-Hydroxytryptophan in limbic region in rat after injecting drug compound 65 min and NSD 1015 at a dose of 100 mg/kg administered subcutaneously, 30 min before death, tested in vivo; assay type: functional, Limbic system; settings: route subcutaneous
Rattus norvegicus [6] = test: Accumulation of 5-Hydroxytryptophan in cortical brain region in rat after injecting drug compound 65 min and NSD 1015 at a dose of 100 mg/kg administered subcutaneously, 30 min before death, tested in vivo; assay type: functional; settings: route subcutaneous
Rattus norvegicus [7] = test: Accumulation of Dihydroxyphenylalanine in limbic region in rat after injecting drug compound 65 min and NSD 1015 at a dose of 100 mg/kg administered subcutaneously, 30 min before death, tested in vivo; assay type: functional, Limbic system; settings: route subcutaneous
Rattus norvegicus [8] = test: Accumulation of Dihydroxyphenylalanine in cortical brain region in rat after injecting drug compound 65 min and NSD 1015 at a dose of 100 mg/kg administered subcutaneously, 30 min before death, tested in vivo; assay type: functional; settings: route subcutaneous
[9] = target: T3, Serotonin 2 (5-HT2) receptor (Rattus norvegicus, UniProt P30994+P08909+P14842); test: Inhibitory concentration against [3H]ketanserin binding to 5-hydroxytryptamine 2 receptor expressed in CHO-K1 cells; assay type: cell-based
Rattus norvegicus [10] = test: Locomotor activity, measured for 30 min after injection of drug, administered subcutaneously at 100 umol/kg; assay type: functional
D(2) dopamine receptor [11] = target: T4, D(2) dopamine receptor (Rattus norvegicus, UniProt P61169); test: Binding affinity against [3H]U-86170 binding to Dopamine receptor D2 expressed in CHO-K1 cells; assay type: cell-based
T4 sequence (P61169 whole entry): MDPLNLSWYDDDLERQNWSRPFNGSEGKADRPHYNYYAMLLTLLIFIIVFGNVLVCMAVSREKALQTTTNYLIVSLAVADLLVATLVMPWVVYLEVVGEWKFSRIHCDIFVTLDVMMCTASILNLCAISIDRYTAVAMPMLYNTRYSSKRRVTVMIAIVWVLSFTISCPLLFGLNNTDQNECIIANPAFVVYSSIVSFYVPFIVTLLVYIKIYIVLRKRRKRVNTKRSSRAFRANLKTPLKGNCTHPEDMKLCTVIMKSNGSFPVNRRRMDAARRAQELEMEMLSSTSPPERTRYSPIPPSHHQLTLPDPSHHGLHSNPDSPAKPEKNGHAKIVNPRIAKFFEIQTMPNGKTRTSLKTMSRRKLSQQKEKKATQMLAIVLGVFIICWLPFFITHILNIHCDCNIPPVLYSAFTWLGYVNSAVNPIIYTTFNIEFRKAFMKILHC

[12] = target: T1, 5-hydroxytryptamine receptor 1A; test: Inhibitory concentration against [3H]8-OH-DPAT binding to 5-hydroxytryptamine 1A receptor expressed in CHO-K1 cells; assay type: cell-based
D(3) dopamine receptor [13] = target: T2, D(3) dopamine receptor; test: Inhibitory concentration against [3H]spiperone binding to Dopamine receptor D3 expressed in CHO-K1 cells; assay type: cell-based
D(2) dopamine receptor [14] = target: T4, D(2) dopamine receptor; test: Inhibitory concentration against [3H]U-86170 binding to Dopamine receptor D2 expressed in CHO-K1 cells; assay type: cell-based
[15] = target: T3, Serotonin 2 (5-HT2) receptor; test: Binding affinity against [3H]ketanserin binding to 5-hydroxytryptamine 2 receptor expressed in CHO-K1 cells; assay type: cell-based
Rattus norvegicus [16] = test: Accumulation of Dihydroxyphenylalanine in striatal region in rat after injecting drug compound 65 min and NSD 1015 at a dose of 0.07 mg/kg administered subcutaneously, 30 min before death, tested in vivo; assay type: functional; settings: route subcutaneous
Rattus norvegicus [17] = test: Accumulation of Dihydroxyphenylalanine in limbic region in rat after injecting drug compound 65 min and NSD 1015 at a dose of 0.07 mg/kg administered subcutaneously, 30 min before death, tested in vivo; assay type: functional, Limbic system; settings: route subcutaneous

| Structure (SMILES) | Control (Rattus norvegicus [1]) [%] | Control (Rattus norvegicus [2]) [%] | Ki [3] [nM] | Ki (D(3) dopamine receptor [4]) [nM] | Control (Rattus norvegicus [5]) [%] | Control (Rattus norvegicus [6]) [%] | Control (Rattus norvegicus [7]) [%] | Control (Rattus norvegicus [8]) [%] | IC50 [9] [nM] | Control (Rattus norvegicus [10]) [%] | Ki (D(2) dopamine receptor [11]) [nM] | IC50 [12] [nM] | IC50 (D(3) dopamine receptor [13]) [nM] | IC50 (D(2) dopamine receptor [14]) [nM] | Ki [15] [nM] | Control (Rattus norvegicus [16]) [%] | Control (Rattus norvegicus [17]) [%] |
| --- | --- | --- | --- | --- | --- | --- | --- | --- | --- | --- | --- | --- | --- | --- | --- | --- | --- |
| CCCN1CCC(c2cccc(OS(=O)(=O)C(F)(F)F)c2)C1 (configuration not stated) | 86 | 290 | 652 | 62 | 85 | 98 | 211 | 114 | > 1000 | 93 | 162 | – | – | – | – | – | – |
| CN1CCC(C2=CN=CCC2)C1 (configuration not stated) | 112 | 112 | – | – | 72 | 79 | 112 | 126 | > 1000 | 47 | – | > 1000 | > 1000 | > 1000 | – | – | – |
| CCCN1CCC(c2cccc(S(C)(=O)=O)c2)C1 (configuration not stated) | 78 | 256 | 807 | – | 97 | 92 | 207 | 143 | > 1000 | 126 | – | – | > 1000 | > 1000 | – | – | – |
| CCCN1CCC[C@@H](c2cccc(S(C)(=O)=O)c2)C1 | 85 | 317 | – | – | 83 | 78 | 228 | 165 | – | 135 | – | – | – | – | – | – | – |
| CCCN1CCC(c2cccc3ccccc23)C1 (configuration not stated) | 54 | 177 | 73 | – | 53 | 57 | 118 | 115 | – | 80 | 71 | – | > 1000 | – | 113 | – | – |
| CCCN1CCC(c2cccc(O)c2)C1 (configuration not stated) | 68 | 153 | 201 | 52 | 74 | 79 | 113 | 88 | > 1000 | 20 | 68 | – | – | – | – | – | – |
| CCCN1CCC(c2ccccc2)C1 (configuration not stated) | 81 | 66 | 453 | > 2500 | 92 | 83 | 96 | 130 | > 1000 | 115 | 625 | – | – | – | – | – | – |
| CCCN1CCC(c2cccnc2)C1 (configuration not stated) | 104 | 108 | – | – | 90 | 94 | 111 | 132 | > 1000 | 15 | – | > 1000 | > 1000 | > 1000 | – | – | – |
| c1ccc2c(C3CCNC3)cccc2c1 (configuration not stated) | 93 | 82 | 95 | – | 94 | 86 | 92 | 104 | – | 129 | 264 | – | > 1000 | – | 40 | – | – |
| FC(F)(F)c1cccc(C2CCNC2)c1 (configuration not stated) | 82 | 163 | 174 | 633 | 70 | 70 | 113 | 72 | – | 74 | 100 | – | – | – | 227 | – | – |
| CCCN1CCC(C2CCCCC2)C1 (configuration not stated) | 103 | 95 | – | – | 102 | 88 | 116 | 119 | > 1000 | 87 | – | > 1000 | > 1000 | > 1000 | – | – | – |
| CS(=O)(=O)c1cccc(C2CCNC2)c1 (configuration not stated) | 92 | 91 | – | – | 96 | 98 | 89 | 104 | > 1000 | 71 | – | > 1000 | > 1000 | > 1000 | – | – | – |
| O=C(CCCN1CCC(O)(c2ccc(Cl)cc2)CC1)c1ccc(F)cc1 [HALOPERIDOL] | – | – | – | – | – | – | – | – | – | 2 | – | – | – | – | – | 310 | 241 |
| CCCN1CCC(c2cccc(C(F)(F)F)c2)C1 (configuration not stated) | 78 | 297 | 351 | 35 | 97 | 87 | 205 | 131 | – | 89 | 151 | – | – | – | 569 | – | – |
